Measurements as given in patent publication US4613355A, “Antibiotic having herbicidal activity” (Satoshi Omura, priority 1983, dated 1986).

Tests used:
Format in all cases: in vivo
Cryptomeria japonica = test: Foliage treatment of woody plants (Example 10); set-up: key to damage to the plants, scale 0 to 5: 0 indicates no effect; 5 indicates complete kill; conditions: CP Cryptomeria japonica
Excerpt: (§1) Aqueous solutions containing Phosalacine (Na salt) at different concentrations and 0.1% of octylphenylpolyoxy ethanol as surfactant were applied at a rate of 1500 liter per hectare to woody plants of about 60-70 cm in height. 7 and 14 days after the foliage treatment, damage to the plants was visually assessed on a scale of from 0 to 5 (cf. Example 7).

Chamaecyparis obtusa = test: Foliage treatment of woody plants (Example 10); set-up: key to damage to the plants, scale 0 to 5: 0 indicates no effect; 5 indicates complete kill; conditions: CH Chamaecyparis obtusa
Excerpt: as §1

Castanea crenata [1] = test: Foliage treatment of woody plants (Example 10); set-up: key: 0 indicates no effect; 5 indicates complete kill; conditions: Plant No. 8 Castanea crenata
Excerpt: as §1

Picea densiflora = test: Foliage treatment of woody plants (Example 10); set-up: key: 0 indicates no effect; 5 indicates complete kill; conditions: Plant No. 22 Picea densiflora
Excerpt: as §1

Larix leptolepis = test: Foliage treatment of woody plants (Example 10); set-up: key: 0 indicates no effect; 5 indicates complete kill; conditions: Plant No. 23 Larix leptolepis
Excerpt: as §1

Allium fistulosum = test: Foliage treatment (Example 8); set-up: key: 0 indicates no effect; 5 indicates complete kill; conditions: Plant No. 27 Allium fistulosum
Experimental: (§2) Aqueous solutions of Phosalacine (Na salt) at different concentrations were applied at a rate of 1500 liters per hectare to naturally occurring plants or plants which were cultured on plates as shown in the following Table at certain stages of growth. […]

[2] = tested on: Eleucine indica var. carocana; test: Foliage treatment (Example 8); set-up: key: 0 indicates no effect; 5 indicates complete kill; conditions: Plant No. 24 Eleucine indica var. carocana
Experimental: as §2

Euphonia supina = test: Foliage treatment (Example 8); set-up: key: 0 indicates no effect; 5 indicates complete kill; conditions: Plant No. 36 Euphonia supina
Experimental: as §2

Artemisia princeps = test: Foliage treatment (Example 8); set-up: key: 0 indicates no effect; 5 indicates complete kill; conditions: Plant No. 1 Artemisia princeps
Experimental: as §2

Oxalis corniculata = test: Foliage treatment (Example 8); set-up: key: 0 indicates no effect; 5 indicates complete kill; conditions: Plant No. 35 Oxalis corniculata
Experimental: as §2

Glycine max = test: Foliage treatment (Example 8); set-up: key: 0 indicates no effect; 5 indicates complete kill; conditions: Plant No. 34 Glycine max
Experimental: as §2

Zanthoxylum piperitum = test: Foliage treatment of naturally growing weeds and brush (Example 9); set-up: key: 0 indicates no effect; 5 indicates complete kill; conditions: Plant No. 19 Zanthoxylum piperitum, One month
Excerpt: (§3) Aqueous solutions of Phosalacine (Na salt) at different concentrations and 0.1% of octylphenylpolyoxy ethanol as surfactant were applied to the area where various weeds and brush were naturally growing at a rate of 1500 liter per hectare. One month after the foliage treatment, damage to weeds and brush was visually assessed on a scale of from 0 to 5 where 0 indicates no effect and 5 indicates complete kill as hereinbefore defined.

Rubus palmatus = test: as above; set-up: key: 0 indicates no effect; 5 indicates complete kill; conditions: Plant No. 18 Rubus palmatus, One month
Excerpt: as §3

Smilax china = test: as above; set-up: key: 0 indicates no effect; 5 indicates complete kill; conditions: Plant No. 17 Smilax china, One month
Excerpt: as §3

Castanea crenata [3] = test: as above; set-up: key: 0 indicates no effect; 5 indicates complete kill; conditions: Plant No. 8 Castanea crenata, One month
Excerpt: as §3

Viburnum dilatatum = test: as above; set-up: key: 0 indicates no effect; 5 indicates complete kill; conditions: Plant No. 21 Viburnum dilatatum, One month
Excerpt: as §3

[4] = tested on: various weeds and brush (overall evaluation); test: as above; set-up: key: 0 indicates no effect; 5 indicates complete kill; conditions: OE overall evaluation, One month
Excerpt: as §3

Pteridium aquilinum = test: as above; set-up: key: 0 indicates no effect; 5 indicates complete kill; conditions: Plant No. 20 Pteridium aquilinum, One month
Excerpt: as §3

C[C@H](NC(=O)[C@H](C)NC(=O)[C@@H](N)CCP(C)(=O)[O-])C(=O)O.[Na+] [SF, reference compound]
damage to the plants, scale 0 to 5 (Cryptomeria japonica; 0.125%, 7 days): 0 | damage to the plants, scale 0 to 5 (Cryptomeria japonica; 0.125%, 14 days): 0 | damage to the plants, scale 0 to 5 (Cryptomeria japonica; 0.25%, 7 days): 0 | damage to the plants, scale 0 to 5 (Cryptomeria japonica; 0.25%, 14 days): 1 | damage to the plants, scale 0 to 5 (Cryptomeria japonica; 0.5%, 7 days): 0 | damage to the plants, scale 0 to 5 (Cryptomeria japonica; 0.5%, 14 days): 2 | damage to the plants, scale 0 to 5 (Chamaecyparis obtusa; 0.125%, 7 days): 0 | damage to the plants, scale 0 to 5 (Chamaecyparis obtusa; 0.125%, 14 days): 0 | damage to the plants, scale 0 to 5 (Chamaecyparis obtusa; 0.25%, 7 days): 0 | damage to the plants, scale 0 to 5 (Chamaecyparis obtusa; 0.25%, 14 days): 0 | damage to the plants, scale 0 to 5 (Chamaecyparis obtusa; 0.5%, 7 days): 0 | damage to the plants, scale 0 to 5 (Chamaecyparis obtusa; 0.5%, 14 days): 0 | damage to the plants, scale 0 to 5 (Castanea crenata [1]; 0.125%, 7 days): 5 | damage to the plants, scale 0 to 5 (Castanea crenata [1]; 0.125%, 14 days): 5 | damage to the plants, scale 0 to 5 (Castanea crenata [1]; 0.25%, 7 days): 5 | damage to the plants, scale 0 to 5 (Castanea crenata [1]; 0.25%, 14 days): 5 | damage to the plants, scale 0 to 5 (Castanea crenata [1]; 0.5%, 7 days): 5 | damage to the plants, scale 0 to 5 (Castanea crenata [1]; 0.5%, 14 days): 5 | damage to the plants, scale 0 to 5 (Picea densiflora; 0.125%, 7 days): 4 | damage to the plants, scale 0 to 5 (Picea densiflora; 0.125%, 14 days): 5 | damage to the plants, scale 0 to 5 (Picea densiflora; 0.25%, 7 days): 4 | damage to the plants, scale 0 to 5 (Picea densiflora; 0.25%, 14 days): 5 | damage to the plants, scale 0 to 5 (Picea densiflora; 0.5%, 7 days): 4 | damage to the plants, scale 0 to 5 (Picea densiflora; 0.5%, 14 days): 5 | damage to the plants, scale 0 to 5 (Larix leptolepis; 0.125%, 7 days): 4 | damage to the plants, scale 0 to 5 (Larix leptolepis; 0.125%, 14 days): 5 | damage to the plants, scale 0 to 5 (Larix leptolepis; 0.25%, 7 days): 4 | damage to the plants, scale 0 to 5 (Larix leptolepis; 0.25%, 14 days): 5 | damage to the plants, scale 0 to 5 (Larix leptolepis; 0.5%, 7 days): 4 | damage to the plants, scale 0 to 5 (Larix leptolepis; 0.5%, 14 days): 5 | damage to the plants, scale 0 to 5 (Allium fistulosum; 0.1%, 7 days): 3 | damage to the plants, scale 0 to 5 (Allium fistulosum; 0.1%, 14 days): 4 | damage to the plants, scale 0 to 5 (Allium fistulosum; 0.2%, 7 days): 5 | damage to the plants, scale 0 to 5 (Allium fistulosum; 0.2%, 14 days): 5 | damage to the plants, scale 0 to 5 ([2]; 0.1%, 7 days): 3 | damage to the plants, scale 0 to 5 ([2]; 0.1%, 14 days): 4 | damage to the plants, scale 0 to 5 ([2]; 0.2%, 7 days): 4 | damage to the plants, scale 0 to 5 ([2]; 0.2%, 14 days): 5 | damage to the plants, scale 0 to 5 (Euphonia supina; 0.1%, 7 days): 3 | damage to the plants, scale 0 to 5 (Euphonia supina; 0.1%, 14 days): 4 | damage to the plants, scale 0 to 5 (Euphonia supina; 0.2%, 7 days): 4 | damage to the plants, scale 0 to 5 (Euphonia supina; 0.2%, 14 days): 5 | damage to the plants, scale 0 to 5 (Artemisia princeps; 0.1%, 7 days): 3 | damage to the plants, scale 0 to 5 (Artemisia princeps; 0.1%, 14 days): 4 | damage to the plants, scale 0 to 5 (Artemisia princeps; 0.2%, 7 days): 4 | damage to the plants, scale 0 to 5 (Artemisia princeps; 0.2%, 14 days): 5 | damage to the plants, scale 0 to 5 (Oxalis corniculata; 0.1%, 7 days): 3 | damage to the plants, scale 0 to 5 (Oxalis corniculata; 0.1%, 14 days): 4 | damage to the plants, scale 0 to 5 (Oxalis corniculata; 0.2%, 7 days): 4 | damage to the plants, scale 0 to 5 (Oxalis corniculata; 0.2%, 14 days): 5 | damage to the plants, scale 0 to 5 (Glycine max; 0.1%, 7 days): 3 | damage to the plants, scale 0 to 5 (Glycine max; 0.1%, 14 days): 4 | damage to the plants, scale 0 to 5 (Glycine max; 0.2%, 7 days): 4 | damage to the plants, scale 0 to 5 (Glycine max; 0.2%, 14 days): 5 | damage to weeds and brush, scale 0 to 5 (Zanthoxylum piperitum; 0.05%): 2 | damage to weeds and brush, scale 0 to 5 (Zanthoxylum piperitum; 0.1%): 4 | damage to weeds and brush, scale 0 to 5 (Zanthoxylum piperitum; 0.2%): 5 | damage to weeds and brush, scale 0 to 5 (Rubus palmatus; 0.05%): 2 | damage to weeds and brush, scale 0 to 5 (Rubus palmatus; 0.1%): 4 | damage to weeds and brush, scale 0 to 5 (Rubus palmatus; 0.2%): 5 | damage to weeds and brush, scale 0 to 5 (Smilax china; 0.05%): 2 | damage to weeds and brush, scale 0 to 5 (Smilax china; 0.1%): 4 | damage to weeds and brush, scale 0 to 5 (Smilax china; 0.2%): 5 | damage to weeds and brush, scale 0 to 5 (Castanea crenata [3]; 0.05%): 2 | damage to weeds and brush, scale 0 to 5 (Castanea crenata [3]; 0.1%): 4 | damage to weeds and brush, scale 0 to 5 (Castanea crenata [3]; 0.2%): 5 | damage to weeds and brush, scale 0 to 5 (Viburnum dilatatum; 0.05%): 2 | damage to weeds and brush, scale 0 to 5 (Viburnum dilatatum; 0.1%): 4 | damage to weeds and brush, scale 0 to 5 (Viburnum dilatatum; 0.2%): 5 | damage to weeds and brush, scale 0 to 5 ([4]; 0.05%): 2 | damage to weeds and brush, scale 0 to 5 ([4]; 0.1%): 4 | damage to weeds and brush, scale 0 to 5 ([4]; 0.2%): 5 | damage to weeds and brush, scale 0 to 5 (Pteridium aquilinum; 0.05%): 2 | damage to weeds and brush, scale 0 to 5 (Pteridium aquilinum; 0.1%): 4 | damage to weeds and brush, scale 0 to 5 (Pteridium aquilinum; 0.2%): 5
